For the first assay, the target named is ADRBK1 (human) (UniProt P25098). Description: radiometric filter-binding kinase assay, Kinase HotSpot. The note with it: compound 0.5 µM; ATP 10 µM.
Chain of ADRBK1 (human) (P25098 whole entry, looked up): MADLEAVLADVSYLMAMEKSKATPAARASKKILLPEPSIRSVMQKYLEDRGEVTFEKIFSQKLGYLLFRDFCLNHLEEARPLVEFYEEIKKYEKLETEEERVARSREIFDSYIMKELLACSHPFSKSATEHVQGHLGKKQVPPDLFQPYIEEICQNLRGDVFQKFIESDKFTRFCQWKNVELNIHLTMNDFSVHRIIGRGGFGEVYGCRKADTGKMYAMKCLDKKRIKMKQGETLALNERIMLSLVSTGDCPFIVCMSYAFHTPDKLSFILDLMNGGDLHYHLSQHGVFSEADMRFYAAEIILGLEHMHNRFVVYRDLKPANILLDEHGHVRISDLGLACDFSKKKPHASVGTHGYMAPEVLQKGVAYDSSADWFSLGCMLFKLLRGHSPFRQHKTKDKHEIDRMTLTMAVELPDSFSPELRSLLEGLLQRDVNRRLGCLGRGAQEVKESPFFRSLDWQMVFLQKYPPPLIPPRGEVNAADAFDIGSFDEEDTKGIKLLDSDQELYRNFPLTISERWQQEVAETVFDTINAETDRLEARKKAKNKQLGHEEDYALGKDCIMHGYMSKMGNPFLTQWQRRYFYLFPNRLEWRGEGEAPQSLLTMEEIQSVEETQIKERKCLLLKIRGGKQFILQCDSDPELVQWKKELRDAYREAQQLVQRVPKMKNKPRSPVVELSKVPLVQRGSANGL
Chain of CAMK1G (human) (Q96NX5 whole entry, looked up): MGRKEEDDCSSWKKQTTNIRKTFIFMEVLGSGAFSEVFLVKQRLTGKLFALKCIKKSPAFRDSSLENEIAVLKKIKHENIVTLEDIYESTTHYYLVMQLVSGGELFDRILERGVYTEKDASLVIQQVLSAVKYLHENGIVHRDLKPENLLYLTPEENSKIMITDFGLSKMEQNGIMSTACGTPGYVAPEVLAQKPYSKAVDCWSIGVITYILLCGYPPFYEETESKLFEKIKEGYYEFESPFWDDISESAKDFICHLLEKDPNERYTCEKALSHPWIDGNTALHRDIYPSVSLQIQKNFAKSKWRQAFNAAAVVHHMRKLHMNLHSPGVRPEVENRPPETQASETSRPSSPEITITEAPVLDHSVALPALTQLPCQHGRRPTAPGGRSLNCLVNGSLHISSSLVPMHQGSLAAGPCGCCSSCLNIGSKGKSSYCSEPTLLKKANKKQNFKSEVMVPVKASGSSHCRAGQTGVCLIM
Chain of FRK (human) (P42685 whole entry, looked up): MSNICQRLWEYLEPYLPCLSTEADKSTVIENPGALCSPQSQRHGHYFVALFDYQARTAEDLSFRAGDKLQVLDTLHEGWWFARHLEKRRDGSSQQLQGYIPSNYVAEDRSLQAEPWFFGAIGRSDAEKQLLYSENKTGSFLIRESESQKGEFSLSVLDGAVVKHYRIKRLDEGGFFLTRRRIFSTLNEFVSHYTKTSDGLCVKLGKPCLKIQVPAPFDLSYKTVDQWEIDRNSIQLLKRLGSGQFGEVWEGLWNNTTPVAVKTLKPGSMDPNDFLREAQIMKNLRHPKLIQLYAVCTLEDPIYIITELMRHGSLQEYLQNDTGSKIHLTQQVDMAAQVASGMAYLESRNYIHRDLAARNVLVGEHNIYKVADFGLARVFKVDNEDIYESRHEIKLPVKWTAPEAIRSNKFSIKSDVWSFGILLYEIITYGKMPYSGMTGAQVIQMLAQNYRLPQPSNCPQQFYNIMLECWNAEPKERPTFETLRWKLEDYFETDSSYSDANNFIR
Chain of HIPK4 (human) (Q8NE63 whole entry, looked up): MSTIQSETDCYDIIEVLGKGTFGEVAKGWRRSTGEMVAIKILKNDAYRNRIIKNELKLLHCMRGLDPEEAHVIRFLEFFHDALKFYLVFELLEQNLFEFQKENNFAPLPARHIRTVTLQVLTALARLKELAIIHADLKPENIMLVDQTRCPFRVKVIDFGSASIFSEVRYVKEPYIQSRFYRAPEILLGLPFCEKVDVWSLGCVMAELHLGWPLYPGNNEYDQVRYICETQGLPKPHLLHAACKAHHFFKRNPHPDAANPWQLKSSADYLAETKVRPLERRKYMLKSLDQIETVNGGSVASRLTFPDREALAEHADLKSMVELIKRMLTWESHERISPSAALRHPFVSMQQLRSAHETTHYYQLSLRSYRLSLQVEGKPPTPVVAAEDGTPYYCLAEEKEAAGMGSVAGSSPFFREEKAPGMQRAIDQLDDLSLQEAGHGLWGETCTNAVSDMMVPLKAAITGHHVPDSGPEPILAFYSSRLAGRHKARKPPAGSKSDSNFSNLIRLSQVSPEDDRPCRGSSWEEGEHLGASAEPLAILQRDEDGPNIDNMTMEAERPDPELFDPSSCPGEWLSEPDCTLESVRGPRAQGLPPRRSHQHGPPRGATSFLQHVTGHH
For the compound `Nc1nccc(-c2c(-c3ccc(F)cc3)ncn2C2CCNCC2)n1`, the residual activity was found to be 99.7%.

Turning to `COc1ccc(OC)c2c(=S)c3ccccc3[nH]c12`, the residual activity was 92.5%.

Regarding `COc1cc2ncc(-c3ccccc3)nc2cc1OC`, the residual activity came to 95.8%.

The target in another assay is AKT2 (human) (UniProt P31751). The assay is described as above. The settings on record: compound 0.5 µM; ATP 10 µM.
Chain of AKT2 (human) (P31751 whole entry, looked up): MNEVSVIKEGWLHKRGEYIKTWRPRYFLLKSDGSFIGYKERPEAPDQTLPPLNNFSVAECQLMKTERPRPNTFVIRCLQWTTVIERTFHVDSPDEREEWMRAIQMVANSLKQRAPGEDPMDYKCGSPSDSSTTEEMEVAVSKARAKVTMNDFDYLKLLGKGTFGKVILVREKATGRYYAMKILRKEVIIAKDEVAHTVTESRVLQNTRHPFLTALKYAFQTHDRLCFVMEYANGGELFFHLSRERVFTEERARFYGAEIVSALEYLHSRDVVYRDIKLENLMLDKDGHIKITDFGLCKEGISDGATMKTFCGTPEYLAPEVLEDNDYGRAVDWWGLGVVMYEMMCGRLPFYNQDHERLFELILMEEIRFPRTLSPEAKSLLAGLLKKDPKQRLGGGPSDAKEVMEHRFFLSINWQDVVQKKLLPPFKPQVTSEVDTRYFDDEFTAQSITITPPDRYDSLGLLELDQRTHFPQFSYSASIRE
Turning to `Nc1nccc(-c2c(-c3ccc(F)cc3)ncn2C2CCNCC2)n1`, the residual activity was found to be 94.8%.

In the case of `COc1ccc(OC)c2c(=S)c3ccccc3[nH]c12`, the residual activity was found to be 94.6%.

Take `COc1cc2ncc(-c3ccccc3)nc2cc1OC`: the residual activity came to 86.7%.

The next assay deals with AURKA (human) (UniProt O14965). Described as above. The note with it: compound 0.5 µM; ATP 10 µM.
For the compound `Nc1nccc(-c2c(-c3ccc(F)cc3)ncn2C2CCNCC2)n1`, the residual activity is 100%.

As for `COc1ccc(OC)c2c(=S)c3ccccc3[nH]c12`, the residual activity came to 116%.

Regarding `COc1cc2ncc(-c3ccccc3)nc2cc1OC`, the residual activity was 90.3%.

The next assay concerns the target CAMK1G (human) (UniProt Q96NX5). The assay is described as above. The settings on record: compound 0.5 µM; ATP 10 µM.
For the compound `Nc1nccc(-c2c(-c3ccc(F)cc3)ncn2C2CCNCC2)n1`, the residual activity amounted to 99.3%.

As for `COc1ccc(OC)c2c(=S)c3ccccc3[nH]c12`, the residual activity came out at 99.5%.

`COc1cc2ncc(-c3ccccc3)nc2cc1OC`: the residual activity turned out to be 95.1%.

The next assay deals with CAMKK2 (human) (UniProt Q96RR4). The description is as above. The note with it: compound 0.5 µM; ATP 10 µM.
`Nc1nccc(-c2c(-c3ccc(F)cc3)ncn2C2CCNCC2)n1`: the residual activity stood at 110%.

For the compound `COc1ccc(OC)c2c(=S)c3ccccc3[nH]c12`, the residual activity stood at 108%.

As for `COc1cc2ncc(-c3ccccc3)nc2cc1OC`, the residual activity stood at 114%.

In a further assay the target is CDC42BPA (human) (UniProt Q5VT25). The assay is described as above. The settings on record: compound 0.5 µM; ATP 10 µM.
Consider `Nc1nccc(-c2c(-c3ccc(F)cc3)ncn2C2CCNCC2)n1`, for which the residual activity was 101%.

On to `COc1ccc(OC)c2c(=S)c3ccccc3[nH]c12`, for which the residual activity was determined as 82.7%.

Regarding `COc1cc2ncc(-c3ccccc3)nc2cc1OC`, the residual activity stood at 85.4%.

The target in the next assay is CDK6 CCND1 (human) (UniProt Q00534+P24385). The assay is described as above. The note with it: compound 0.5 µM; ATP 10 µM.
Chain of CDK6 CCND1 (human) (P24385 whole entry, looked up): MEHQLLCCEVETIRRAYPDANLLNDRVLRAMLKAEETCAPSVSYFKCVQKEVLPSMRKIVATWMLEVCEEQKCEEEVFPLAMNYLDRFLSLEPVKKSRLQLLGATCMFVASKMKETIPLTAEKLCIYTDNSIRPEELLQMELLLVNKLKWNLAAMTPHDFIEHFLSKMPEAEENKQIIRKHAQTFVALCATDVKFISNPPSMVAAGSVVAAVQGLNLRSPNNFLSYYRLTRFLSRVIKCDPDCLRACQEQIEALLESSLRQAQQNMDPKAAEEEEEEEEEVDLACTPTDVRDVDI
Chain of CDK6 CCND1 (human) (Q00534 whole entry, looked up): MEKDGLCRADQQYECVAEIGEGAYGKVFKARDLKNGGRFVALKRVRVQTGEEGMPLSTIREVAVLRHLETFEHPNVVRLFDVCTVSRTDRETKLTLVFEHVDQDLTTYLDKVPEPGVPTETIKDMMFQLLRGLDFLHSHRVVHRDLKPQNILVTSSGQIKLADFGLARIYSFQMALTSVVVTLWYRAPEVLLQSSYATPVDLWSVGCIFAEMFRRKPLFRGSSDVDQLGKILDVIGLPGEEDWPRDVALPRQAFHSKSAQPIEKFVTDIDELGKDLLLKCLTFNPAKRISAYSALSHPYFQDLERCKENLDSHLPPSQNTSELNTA
In the case of `Nc1nccc(-c2c(-c3ccc(F)cc3)ncn2C2CCNCC2)n1`, the residual activity was 101%.

`COc1ccc(OC)c2c(=S)c3ccccc3[nH]c12`: the residual activity turned out to be 102%.

Consider `COc1cc2ncc(-c3ccccc3)nc2cc1OC`, for which the residual activity was 94.1%.

Another assay deals with CSNK1A1 (human) (UniProt P48729). Described as above. The settings on record: compound 0.5 µM; ATP 10 µM.
Chain of CSNK1A1 (human) (P48729 whole entry, looked up): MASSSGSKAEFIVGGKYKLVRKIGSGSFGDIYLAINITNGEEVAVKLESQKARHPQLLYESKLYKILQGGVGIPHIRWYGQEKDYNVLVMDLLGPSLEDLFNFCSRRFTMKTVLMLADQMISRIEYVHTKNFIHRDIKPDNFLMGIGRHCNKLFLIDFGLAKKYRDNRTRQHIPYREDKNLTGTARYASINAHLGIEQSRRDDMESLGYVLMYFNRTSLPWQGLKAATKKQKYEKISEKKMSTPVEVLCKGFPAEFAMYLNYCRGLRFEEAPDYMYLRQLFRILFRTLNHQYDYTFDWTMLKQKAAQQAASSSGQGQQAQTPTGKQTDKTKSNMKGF
As to `Nc1nccc(-c2c(-c3ccc(F)cc3)ncn2C2CCNCC2)n1`, the residual activity was found to be 2.82%.

For `COc1ccc(OC)c2c(=S)c3ccccc3[nH]c12`, the residual activity was found to be 102%.

Regarding `COc1cc2ncc(-c3ccccc3)nc2cc1OC`, the residual activity came to 100%.

The target of another assay is EGFR (human) (UniProt P00533). Described as above. The settings on record: compound 0.5 µM; ATP 10 µM.
Chain of EGFR (human) (P00533 whole entry, looked up): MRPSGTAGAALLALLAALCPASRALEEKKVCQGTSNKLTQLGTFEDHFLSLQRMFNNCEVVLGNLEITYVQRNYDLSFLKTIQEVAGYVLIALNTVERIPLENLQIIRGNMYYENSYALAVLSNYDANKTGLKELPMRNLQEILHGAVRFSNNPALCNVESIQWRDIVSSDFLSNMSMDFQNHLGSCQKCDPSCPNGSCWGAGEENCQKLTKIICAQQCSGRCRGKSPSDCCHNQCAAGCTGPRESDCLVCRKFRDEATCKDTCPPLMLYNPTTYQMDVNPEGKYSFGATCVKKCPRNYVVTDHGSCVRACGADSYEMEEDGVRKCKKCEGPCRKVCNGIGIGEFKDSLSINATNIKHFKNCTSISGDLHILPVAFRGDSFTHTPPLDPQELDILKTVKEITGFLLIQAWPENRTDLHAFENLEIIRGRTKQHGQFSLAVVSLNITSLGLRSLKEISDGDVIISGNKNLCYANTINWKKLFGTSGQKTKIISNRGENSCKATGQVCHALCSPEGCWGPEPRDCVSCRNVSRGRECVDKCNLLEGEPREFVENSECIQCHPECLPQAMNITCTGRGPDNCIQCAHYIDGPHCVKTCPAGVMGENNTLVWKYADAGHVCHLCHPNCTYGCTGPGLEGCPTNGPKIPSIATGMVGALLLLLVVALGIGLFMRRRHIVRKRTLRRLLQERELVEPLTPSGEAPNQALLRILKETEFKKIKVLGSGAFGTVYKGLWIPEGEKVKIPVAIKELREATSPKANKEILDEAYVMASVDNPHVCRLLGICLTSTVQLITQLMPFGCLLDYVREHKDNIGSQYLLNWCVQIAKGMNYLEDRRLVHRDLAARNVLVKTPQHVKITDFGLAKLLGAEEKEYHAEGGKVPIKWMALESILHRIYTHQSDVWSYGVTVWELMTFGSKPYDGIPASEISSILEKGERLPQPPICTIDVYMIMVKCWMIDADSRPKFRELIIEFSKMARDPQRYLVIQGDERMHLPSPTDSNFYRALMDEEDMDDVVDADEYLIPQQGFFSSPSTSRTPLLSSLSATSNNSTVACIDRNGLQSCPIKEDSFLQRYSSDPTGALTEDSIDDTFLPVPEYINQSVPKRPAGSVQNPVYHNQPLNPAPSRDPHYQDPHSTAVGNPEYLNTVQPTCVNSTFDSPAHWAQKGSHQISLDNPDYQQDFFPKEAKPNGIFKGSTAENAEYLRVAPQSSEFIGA
In the case of `Nc1nccc(-c2c(-c3ccc(F)cc3)ncn2C2CCNCC2)n1`, the residual activity stood at 94.4%.

For `COc1ccc(OC)c2c(=S)c3ccccc3[nH]c12`, the residual activity came out at 91%.

Turning to `COc1cc2ncc(-c3ccccc3)nc2cc1OC`, the residual activity is 82.9%.

A further assay addresses EPHA3 (human) (UniProt P29320). The description is as above. The settings on record: compound 0.5 µM; ATP 10 µM.
Consider `Nc1nccc(-c2c(-c3ccc(F)cc3)ncn2C2CCNCC2)n1`, for which the residual activity was found to be 97.4%.

Regarding `COc1ccc(OC)c2c(=S)c3ccccc3[nH]c12`, the residual activity stood at 94.9%.

Turning to `COc1cc2ncc(-c3ccccc3)nc2cc1OC`, the residual activity was determined as 86.8%.

Another assay concerns the target EPHA5 (human) (UniProt P54756). The description is as above. The note with it: compound 0.5 µM; ATP 10 µM.
Consider `Nc1nccc(-c2c(-c3ccc(F)cc3)ncn2C2CCNCC2)n1`, for which the residual activity stood at 97.8%.

For `COc1ccc(OC)c2c(=S)c3ccccc3[nH]c12`, the residual activity turned out to be 114%.

Take `COc1cc2ncc(-c3ccccc3)nc2cc1OC`: the residual activity turned out to be 99.9%.

For the next assay, the target named is EPHB4 (human) (UniProt P54760). The description is as above. The note with it: compound 0.5 µM; ATP 10 µM.
Turning to `Nc1nccc(-c2c(-c3ccc(F)cc3)ncn2C2CCNCC2)n1`, the residual activity stood at 91.5%.

For `COc1ccc(OC)c2c(=S)c3ccccc3[nH]c12`, the residual activity stood at 91.1%.

Consider `COc1cc2ncc(-c3ccccc3)nc2cc1OC`, for which the residual activity turned out to be 86.4%.

Another assay addresses FRK (human) (UniProt P42685). The assay is described as above. The note with it: compound 0.5 µM; ATP 10 µM.
As to `Nc1nccc(-c2c(-c3ccc(F)cc3)ncn2C2CCNCC2)n1`, the residual activity is 95.4%.

Turning to `COc1ccc(OC)c2c(=S)c3ccccc3[nH]c12`, the residual activity is 88.8%.

For `COc1cc2ncc(-c3ccccc3)nc2cc1OC`, the residual activity was found to be 99.3%.

A further assay concerns the target GRK4 (human) (UniProt P32298). Described as above. The settings on record: compound 0.5 µM; ATP 10 µM.
For `Nc1nccc(-c2c(-c3ccc(F)cc3)ncn2C2CCNCC2)n1`, the residual activity worked out at 96.9%.

As for `COc1ccc(OC)c2c(=S)c3ccccc3[nH]c12`, the residual activity is 103%.

Take `COc1cc2ncc(-c3ccccc3)nc2cc1OC`: the residual activity is 97.8%.

The target in the next assay is GSK3A (human) (UniProt P49840). Described as above. The settings on record: compound 0.5 µM; ATP 10 µM.
`Nc1nccc(-c2c(-c3ccc(F)cc3)ncn2C2CCNCC2)n1`: the residual activity came to 97.5%.

With `COc1ccc(OC)c2c(=S)c3ccccc3[nH]c12`, the residual activity is 104%.

For `COc1cc2ncc(-c3ccccc3)nc2cc1OC`, the residual activity came out at 97.9%.

The target of a further assay is GSK3B (human) (UniProt P49841). Described as above. The settings on record: compound 0.5 µM; ATP 10 µM.
On to `Nc1nccc(-c2c(-c3ccc(F)cc3)ncn2C2CCNCC2)n1`, for which the residual activity was 101%.

With `COc1ccc(OC)c2c(=S)c3ccccc3[nH]c12`, the residual activity was 61.3%.

Consider `COc1cc2ncc(-c3ccccc3)nc2cc1OC`, for which the residual activity was 113%.

The next assay deals with HCK (human) (UniProt P08631). Described as above. The settings on record: compound 0.5 µM; ATP 10 µM.
Take `Nc1nccc(-c2c(-c3ccc(F)cc3)ncn2C2CCNCC2)n1`: the residual activity worked out at 95.5%.

For the compound `COc1ccc(OC)c2c(=S)c3ccccc3[nH]c12`, the residual activity stood at 95.8%.

For the compound `COc1cc2ncc(-c3ccccc3)nc2cc1OC`, the residual activity stood at 96.9%.

Another assay addresses HIPK4 (human) (UniProt Q8NE63). The description is as above. The settings on record: compound 0.5 µM; ATP 10 µM.
In the case of `Nc1nccc(-c2c(-c3ccc(F)cc3)ncn2C2CCNCC2)n1`, the residual activity worked out at 96.6%.

As for `COc1ccc(OC)c2c(=S)c3ccccc3[nH]c12`, the residual activity turned out to be 97.3%.

On to `COc1cc2ncc(-c3ccccc3)nc2cc1OC`, for which the residual activity amounted to 86.4%.

The target in the next assay is LRRK2 (human) (UniProt Q5S007). The assay is described as above. The settings on record: compound 0.5 µM; ATP 10 µM.
Regarding `Nc1nccc(-c2c(-c3ccc(F)cc3)ncn2C2CCNCC2)n1`, the residual activity came to 99.9%.

For `COc1ccc(OC)c2c(=S)c3ccccc3[nH]c12`, the residual activity was 98%.

As to `COc1cc2ncc(-c3ccccc3)nc2cc1OC`, the residual activity worked out at 84.9%.

The next assay addresses MAP3K8 (human) (UniProt P41279). The description is as above. The settings on record: compound 0.5 µM; ATP 10 µM.
Consider `Nc1nccc(-c2c(-c3ccc(F)cc3)ncn2C2CCNCC2)n1`, for which the residual activity turned out to be 102%.

Consider `COc1ccc(OC)c2c(=S)c3ccccc3[nH]c12`, for which the residual activity is 111%.

For `COc1cc2ncc(-c3ccccc3)nc2cc1OC`, the residual activity was determined as 108%.

Another assay has as its target MAPK10 (human) (UniProt P53779). Described as above. The note with it: compound 0.5 µM; ATP 10 µM.
On to `Nc1nccc(-c2c(-c3ccc(F)cc3)ncn2C2CCNCC2)n1`, for which the residual activity is 105%.

Turning to `COc1ccc(OC)c2c(=S)c3ccccc3[nH]c12`, the residual activity stood at 108%.

For the compound `COc1cc2ncc(-c3ccccc3)nc2cc1OC`, the residual activity came to 90.3%.

The record behind these values is the kinase profiling compilation of Christmann-Franck et al. (2016).
